According to ChEMBL document CHEMBL1140726, “Discovery and biological evaluation of 5-aryl-2-furfuramides, potent and selective blockers of the Nav1.8 sodium channel with efficacy in models of neuropathic and inflammatory pain” (J Med Chem, 2008):
Each block holds one molecule with its values, some of them ahead of it.

Legend:
[1] = target: Sodium channel protein type 10 subunit alpha (Mus musculus, UniProt Q6QIY3); assay: Inhibition of mouse recombinant Nav 1.8 channel expressed in HEK293 cells by isotopic efflux assay; format: cell-based
[2] = Aqueous solubility of the compound; format: physicochemical
[3] = Activity at rat dorsal root ganglion in inactivated state with prepulse voltage of -40 mV assessed as blockade of TTx-resistant sodium current at 0.3 uM by whole-cell patch clamp technique; format: functional
[4] = Activity at rat dorsal root ganglion in inactivated state with prepulse voltage of -40 mV assessed as blockade of TTx-resistant sodium current at 0.1 uM by whole-cell patch clamp technique; format: functional
[5] = Activity at rat dorsal root ganglion in resting state with prepulse voltage of -100 mV assessed as blockade of TTx-resistant sodium current at 0.3 uM by whole-cell patch clamp technique; format: functional
[6] = Activity at rat dorsal root ganglion in resting state with prepulse voltage of -100 mV assessed as blockade of TTx-resistant sodium current at 0.1 uM by whole-cell patch clamp technique; format: functional
[7] = target: T1, Sodium channel protein type 10 subunit alpha (Homo sapiens, UniProt Q9Y5Y9); assay: Activity at human recombinant Nav 1.8 channel expressed in HEK293 cells in inactivated state with prepulse voltage of -40 mV assessed as blockade of TTx-resistant sodium current at 0.1 uM; format: cell-based
[8] = target: T1, Sodium channel protein type 10 subunit alpha; assay: Activity at human recombinant Nav 1.8 channel expressed in HEK293 cells in inactivated state with prepulse voltage of -40 mV assessed as blockade of TTx-resistant sodium current at 0.03 uM; format: cell-based
[9] = target: T1, Sodium channel protein type 10 subunit alpha; assay: Activity at human recombinant Nav 1.8 channel expressed in HEK293 cells in resting state with prepulse voltage of -100 mV assessed as blockade of TTx-resistant sodium current at 0.1 uM; format: cell-based
[10] = target: T1, Sodium channel protein type 10 subunit alpha; assay: Activity at human recombinant Nav 1.8 channel expressed in HEK293 cells in resting state with prepulse voltage of -100 mV assessed as blockade of TTx-resistant sodium current at 0.03 uM; format: cell-based
[11] = target: T1, Sodium channel protein type 10 subunit alpha; assay: Inhibition of human recombinant Nav 1.8 channel expressed in HEK293 cells at 0.1 uM; format: cell-based
[12] = target: T1, Sodium channel protein type 10 subunit alpha; assay: Inhibition of human recombinant Nav 1.8 channel expressed in HEK293 cells at 0.03 uM; format: cell-based
[13] = target: Sodium channel protein type 2 subunit alpha (Homo sapiens) (UniProt Q99250); assay: Inhibition of human Nav1.2 channel at 3 uM
[14] = target: Sodium channel protein type 2 subunit alpha (Homo sapiens) (UniProt Q99250); assay: Inhibition of human Nav1.2 channel at 1 uM
[15] = target: Sodium channel protein type 3 subunit alpha (Homo sapiens) (UniProt Q9NY46); assay: Inhibition of human Nav1.3 channel at 3 uM
[16] = target: Sodium channel protein type 3 subunit alpha (Homo sapiens) (UniProt Q9NY46); assay: Inhibition of human Nav1.3 channel at 1 uM
[17] = target: T2, Nav1.5 (sodium channel protein type 5 subunit alpha) (Homo sapiens, UniProt Q14524); assay: Inhibition of human Nav1.5 channel at 3 uM
[18] = target: Sodium channel protein type 9 subunit alpha (Homo sapiens) (UniProt Q15858); assay: Inhibition of human Nav1.7 channel at 3 uM
[19] = target: Voltage-gated inwardly rectifying potassium channel KCNH2 (Homo sapiens, UniProt Q12809); assay: Inhibition of hERG potassium channel expressed in CHO cells by isotope efflux assay
[20] = Activity at rat dorsal root ganglion in inactivated state with prepulse voltage of -40 mV assessed as blockade of TTx-resistant sodium current at 0.03 uM by whole-cell patch clamp technique; format: functional
[21] = Activity at rat dorsal root ganglion in inactivated state with prepulse voltage of -40 mV assessed as blockade of TTx-resistant sodium current at 0.003 uM by whole-cell patch clamp technique; format: functional
[22] = Activity at rat dorsal root ganglion in resting state with prepulse voltage of -100 mV assessed as blockade of TTx-resistant sodium current at 0.03 uM by whole-cell patch clamp technique; format: functional
[23] = Activity at rat dorsal root ganglion in resting state with prepulse voltage of -100 mV assessed as blockade of TTx-resistant sodium current at 0.003 uM by whole-cell patch clamp technique; format: functional
[24] = target: T1, Sodium channel protein type 10 subunit alpha; assay: Activity at human recombinant Nav 1.8 channel expressed in HEK293 cells in inactivated state with prepulse voltage of -40 mV assessed as blockade of TTx-resistant sodium current at 0.001 uM; format: cell-based
[25] = target: T1, Sodium channel protein type 10 subunit alpha; assay: Activity at human recombinant Nav 1.8 channel expressed in HEK293 cells in resting state with prepulse voltage of -100 mV assessed as blockade of TTx-resistant sodium current at 0.001 uM; format: cell-based
[26] = target: T1, Sodium channel protein type 10 subunit alpha; assay: Inhibition of human recombinant Nav 1.8 channel expressed in HEK293 cells at 0.001 uM; format: cell-based
[27] = target: Sodium channel protein type 2 subunit alpha (Homo sapiens) (UniProt Q99250); assay: Inhibition of human Nav1.2 channel at 0.3 uM
[28] = target: Sodium channel protein type 2 subunit alpha (Homo sapiens) (UniProt Q99250); assay: Inhibition of human Nav1.2 channel at 0.03 uM
[29] = target: Sodium channel protein type 3 subunit alpha (Homo sapiens) (UniProt Q9NY46); assay: Inhibition of human Nav1.3 channel at 0.3 uM
[30] = target: T2, Nav1.5 (sodium channel protein type 5 subunit alpha); assay: Inhibition of human Nav1.5 channel at 0.3 uM
[31] = target: T2, Nav1.5 (sodium channel protein type 5 subunit alpha); assay: Inhibition of human Nav1.5 channel at 0.03 uM
[32] = target: Sodium channel protein type 9 subunit alpha (Homo sapiens) (UniProt Q15858); assay: Inhibition of human Nav1.7 channel at 0.3 uM
[33] = target: T1, Sodium channel protein type 10 subunit alpha; assay: Activity at human recombinant Nav 1.8 channel expressed in HEK293 cells in inactivated state with prepulse voltage of -40 mV assessed as blockade of TTx-resistant sodium current at 0.003 uM; format: cell-based
[34] = target: T1, Sodium channel protein type 10 subunit alpha; assay: Activity at human recombinant Nav 1.8 channel expressed in HEK293 cells in resting state with prepulse voltage of -100 mV assessed as blockade of TTx-resistant sodium current at 0.003 uM; format: cell-based
[35] = target: T1, Sodium channel protein type 10 subunit alpha; assay: Inhibition of human recombinant Nav 1.8 channel expressed in HEK293 cells at 0.003 uM; format: cell-based
[36] = target: Sodium channel protein type 2 subunit alpha (Homo sapiens) (UniProt Q99250); assay: Inhibition of human Nav1.2 channel at 0.1 uM
[37] = target: T2, Nav1.5 (sodium channel protein type 5 subunit alpha); assay: Inhibition of human Nav1.5 channel at 1 uM; conditions: human
[38] = target: T2, Nav1.5 (sodium channel protein type 5 subunit alpha); assay: Inhibition of human Nav1.5 channel at 0.1 uM
[39] = target: T1, Sodium channel protein type 10 subunit alpha; assay: Activity at human recombinant Nav 1.8 channel expressed in HEK293 cells in inactivated state with prepulse voltage of -40 mV assessed as blockade of TTx-resistant sodium current at 0.3 uM; format: cell-based
[40] = target: T1, Sodium channel protein type 10 subunit alpha; assay: Activity at human recombinant Nav 1.8 channel expressed in HEK293 cells in resting state with prepulse voltage of -100 mV assessed as blockade of TTx-resistant sodium current at 0.3 uM; format: cell-based
[41] = target: T1, Sodium channel protein type 10 subunit alpha; assay: Inhibition of human recombinant Nav 1.8 channel expressed in HEK293 cells at 0.3 uM; format: cell-based

Chain of Sodium channel protein type 3 subunit alpha (Homo sapiens) (Q9NY46 whole entry, looked up): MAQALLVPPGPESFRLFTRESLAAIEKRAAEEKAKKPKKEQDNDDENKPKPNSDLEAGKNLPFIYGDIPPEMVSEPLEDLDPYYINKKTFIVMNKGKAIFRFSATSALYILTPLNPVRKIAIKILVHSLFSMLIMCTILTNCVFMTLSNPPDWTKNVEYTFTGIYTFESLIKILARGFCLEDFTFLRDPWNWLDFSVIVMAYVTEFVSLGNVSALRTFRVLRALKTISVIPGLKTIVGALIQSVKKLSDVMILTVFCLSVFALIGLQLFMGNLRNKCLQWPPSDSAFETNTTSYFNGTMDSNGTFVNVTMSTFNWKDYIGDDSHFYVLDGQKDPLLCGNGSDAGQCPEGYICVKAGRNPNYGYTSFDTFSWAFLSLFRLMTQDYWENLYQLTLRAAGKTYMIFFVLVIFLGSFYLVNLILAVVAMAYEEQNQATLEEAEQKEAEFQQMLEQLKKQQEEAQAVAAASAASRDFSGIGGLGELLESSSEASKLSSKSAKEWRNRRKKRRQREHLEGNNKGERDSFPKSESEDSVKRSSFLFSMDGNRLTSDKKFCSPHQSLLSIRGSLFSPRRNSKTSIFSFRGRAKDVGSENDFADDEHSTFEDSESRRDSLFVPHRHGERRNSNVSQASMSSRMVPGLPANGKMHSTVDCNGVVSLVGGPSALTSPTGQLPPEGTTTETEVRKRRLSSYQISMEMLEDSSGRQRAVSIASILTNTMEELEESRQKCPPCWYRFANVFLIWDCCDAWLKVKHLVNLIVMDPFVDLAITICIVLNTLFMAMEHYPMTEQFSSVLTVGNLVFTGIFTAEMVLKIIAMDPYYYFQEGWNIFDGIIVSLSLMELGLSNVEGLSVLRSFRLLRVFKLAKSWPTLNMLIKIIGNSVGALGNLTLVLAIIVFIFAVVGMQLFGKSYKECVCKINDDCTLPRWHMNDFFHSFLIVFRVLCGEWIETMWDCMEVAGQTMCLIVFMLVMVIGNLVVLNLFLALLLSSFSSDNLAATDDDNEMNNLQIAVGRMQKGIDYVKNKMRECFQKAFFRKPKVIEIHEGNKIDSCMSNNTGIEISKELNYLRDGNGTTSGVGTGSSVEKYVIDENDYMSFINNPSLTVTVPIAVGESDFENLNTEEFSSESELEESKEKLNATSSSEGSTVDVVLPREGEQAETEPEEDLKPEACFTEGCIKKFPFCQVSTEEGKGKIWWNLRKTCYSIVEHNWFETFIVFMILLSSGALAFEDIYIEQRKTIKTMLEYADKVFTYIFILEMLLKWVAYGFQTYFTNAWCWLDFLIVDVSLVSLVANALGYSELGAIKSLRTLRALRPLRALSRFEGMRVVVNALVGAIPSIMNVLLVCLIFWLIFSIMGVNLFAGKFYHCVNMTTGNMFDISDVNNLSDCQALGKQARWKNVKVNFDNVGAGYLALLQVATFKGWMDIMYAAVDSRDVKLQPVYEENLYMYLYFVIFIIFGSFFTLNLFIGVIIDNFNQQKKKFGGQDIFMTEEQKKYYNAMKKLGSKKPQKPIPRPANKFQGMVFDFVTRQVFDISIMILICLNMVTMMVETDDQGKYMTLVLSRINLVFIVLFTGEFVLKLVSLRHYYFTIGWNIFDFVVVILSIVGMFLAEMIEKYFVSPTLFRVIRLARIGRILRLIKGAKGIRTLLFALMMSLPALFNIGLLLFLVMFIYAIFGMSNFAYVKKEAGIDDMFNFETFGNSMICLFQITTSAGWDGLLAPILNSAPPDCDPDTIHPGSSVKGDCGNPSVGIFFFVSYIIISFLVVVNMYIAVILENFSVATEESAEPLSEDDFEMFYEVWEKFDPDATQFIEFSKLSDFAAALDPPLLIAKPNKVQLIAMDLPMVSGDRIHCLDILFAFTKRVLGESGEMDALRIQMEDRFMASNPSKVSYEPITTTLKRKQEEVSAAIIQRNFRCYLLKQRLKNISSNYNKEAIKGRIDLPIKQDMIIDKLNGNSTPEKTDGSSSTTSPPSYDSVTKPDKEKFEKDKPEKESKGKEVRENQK
T1 sequence (Q9Y5Y9 whole entry, looked up): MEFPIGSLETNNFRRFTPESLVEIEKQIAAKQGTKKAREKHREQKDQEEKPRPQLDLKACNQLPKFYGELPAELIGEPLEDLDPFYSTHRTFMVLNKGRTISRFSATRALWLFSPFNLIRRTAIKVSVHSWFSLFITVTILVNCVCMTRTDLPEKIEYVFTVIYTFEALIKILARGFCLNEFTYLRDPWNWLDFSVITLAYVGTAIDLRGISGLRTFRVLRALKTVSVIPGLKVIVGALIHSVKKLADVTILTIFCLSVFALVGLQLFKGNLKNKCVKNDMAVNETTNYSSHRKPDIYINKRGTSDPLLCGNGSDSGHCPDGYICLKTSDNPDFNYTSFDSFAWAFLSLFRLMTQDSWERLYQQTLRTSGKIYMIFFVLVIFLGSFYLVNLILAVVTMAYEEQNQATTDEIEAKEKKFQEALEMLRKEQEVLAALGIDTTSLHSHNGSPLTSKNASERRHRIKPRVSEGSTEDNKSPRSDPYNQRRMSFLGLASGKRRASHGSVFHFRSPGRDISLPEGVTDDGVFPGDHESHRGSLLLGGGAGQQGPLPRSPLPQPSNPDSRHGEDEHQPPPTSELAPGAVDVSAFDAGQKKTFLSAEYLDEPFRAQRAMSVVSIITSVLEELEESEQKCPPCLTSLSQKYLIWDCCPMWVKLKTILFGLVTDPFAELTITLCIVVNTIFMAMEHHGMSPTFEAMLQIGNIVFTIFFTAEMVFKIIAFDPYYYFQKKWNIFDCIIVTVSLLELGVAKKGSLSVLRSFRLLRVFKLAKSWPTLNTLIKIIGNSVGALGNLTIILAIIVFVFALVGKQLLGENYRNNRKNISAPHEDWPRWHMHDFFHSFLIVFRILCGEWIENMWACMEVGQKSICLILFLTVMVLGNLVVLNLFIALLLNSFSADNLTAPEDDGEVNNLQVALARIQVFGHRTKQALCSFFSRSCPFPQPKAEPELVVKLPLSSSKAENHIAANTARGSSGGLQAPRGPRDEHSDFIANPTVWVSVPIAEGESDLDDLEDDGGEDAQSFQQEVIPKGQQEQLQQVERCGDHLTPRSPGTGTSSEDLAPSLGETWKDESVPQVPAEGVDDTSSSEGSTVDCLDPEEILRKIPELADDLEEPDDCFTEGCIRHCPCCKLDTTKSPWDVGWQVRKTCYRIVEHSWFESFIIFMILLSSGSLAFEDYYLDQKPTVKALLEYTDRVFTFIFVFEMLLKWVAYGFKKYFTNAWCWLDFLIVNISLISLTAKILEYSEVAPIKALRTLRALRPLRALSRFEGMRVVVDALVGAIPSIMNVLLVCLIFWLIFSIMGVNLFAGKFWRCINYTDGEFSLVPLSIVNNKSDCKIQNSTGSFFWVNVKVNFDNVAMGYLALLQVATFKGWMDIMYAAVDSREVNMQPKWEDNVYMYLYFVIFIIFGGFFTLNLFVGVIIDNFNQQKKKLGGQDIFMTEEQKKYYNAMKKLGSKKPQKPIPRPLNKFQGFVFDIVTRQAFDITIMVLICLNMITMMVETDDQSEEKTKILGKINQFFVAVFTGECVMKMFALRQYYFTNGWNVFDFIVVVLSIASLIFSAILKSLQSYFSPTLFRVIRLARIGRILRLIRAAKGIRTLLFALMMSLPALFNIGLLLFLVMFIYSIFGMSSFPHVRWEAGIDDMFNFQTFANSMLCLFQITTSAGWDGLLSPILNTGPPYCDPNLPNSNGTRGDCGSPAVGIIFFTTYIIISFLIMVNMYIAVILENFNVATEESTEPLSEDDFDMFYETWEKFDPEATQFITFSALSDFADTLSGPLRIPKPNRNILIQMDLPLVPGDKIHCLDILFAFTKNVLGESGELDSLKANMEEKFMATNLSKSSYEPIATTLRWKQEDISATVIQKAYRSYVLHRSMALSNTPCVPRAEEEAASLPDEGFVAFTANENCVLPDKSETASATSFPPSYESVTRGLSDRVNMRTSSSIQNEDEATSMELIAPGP
Chain of Voltage-gated inwardly rectifying potassium channel KCNH2 (Q12809 whole entry): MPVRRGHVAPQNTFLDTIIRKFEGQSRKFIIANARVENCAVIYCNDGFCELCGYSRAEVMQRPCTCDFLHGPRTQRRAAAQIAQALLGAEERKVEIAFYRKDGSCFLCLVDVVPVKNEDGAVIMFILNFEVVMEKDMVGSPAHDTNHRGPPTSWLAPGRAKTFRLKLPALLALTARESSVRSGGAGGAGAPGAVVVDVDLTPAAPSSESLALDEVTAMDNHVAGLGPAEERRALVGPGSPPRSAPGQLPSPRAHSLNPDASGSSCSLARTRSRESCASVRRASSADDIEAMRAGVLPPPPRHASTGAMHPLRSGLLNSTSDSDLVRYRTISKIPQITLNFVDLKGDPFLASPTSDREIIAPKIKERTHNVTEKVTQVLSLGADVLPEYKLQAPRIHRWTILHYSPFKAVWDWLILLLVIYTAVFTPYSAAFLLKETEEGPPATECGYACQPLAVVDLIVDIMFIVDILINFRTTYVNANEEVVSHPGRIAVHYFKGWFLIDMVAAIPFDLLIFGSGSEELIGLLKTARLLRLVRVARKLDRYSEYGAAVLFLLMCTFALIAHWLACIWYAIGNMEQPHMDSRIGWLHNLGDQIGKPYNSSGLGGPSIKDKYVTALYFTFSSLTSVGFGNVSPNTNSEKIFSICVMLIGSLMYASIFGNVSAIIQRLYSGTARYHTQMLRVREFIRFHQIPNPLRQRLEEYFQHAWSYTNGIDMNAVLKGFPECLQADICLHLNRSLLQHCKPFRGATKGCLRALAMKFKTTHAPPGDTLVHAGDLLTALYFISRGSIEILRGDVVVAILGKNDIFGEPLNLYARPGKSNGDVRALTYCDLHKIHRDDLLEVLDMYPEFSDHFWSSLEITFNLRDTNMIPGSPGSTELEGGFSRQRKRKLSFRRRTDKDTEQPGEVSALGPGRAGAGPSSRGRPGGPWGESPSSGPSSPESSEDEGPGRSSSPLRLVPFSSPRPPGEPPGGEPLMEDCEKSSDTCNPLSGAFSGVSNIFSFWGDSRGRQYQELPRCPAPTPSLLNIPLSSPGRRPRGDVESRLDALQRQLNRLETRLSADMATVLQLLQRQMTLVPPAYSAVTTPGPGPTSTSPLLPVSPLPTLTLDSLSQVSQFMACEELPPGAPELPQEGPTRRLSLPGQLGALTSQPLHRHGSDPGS

SMILES: Cc1cccc(NC(=O)c2ccc(-c3ccc(S(C)(=O)=O)cc3)o2)c1
IC50 [1]: > 30 µM

SMILES: Cc1cccc(NC(=O)c2ccc(-c3cccc(C#N)c3)o2)c1
IC50 [1]: 30 µM

SMILES: Cc1cccc(N(C)C(=O)c2ccc(-c3ccc(Cl)cc3)o2)c1
IC50 [1]: 3.4 µM

SMILES: N#CCc1cccc(NC(=O)c2ccc(-c3ccc(Cl)cc3)o2)c1
IC50 [1]: 1.7 µM

SMILES: O=C(Nc1ccc2cc[nH]c2c1)c1ccc(-c2ccc(Cl)cc2)o1
IC50 [1]: 3.1 µM

SMILES: O=C(Nc1cccc(N2CCOCC2)c1)c1ccc(-c2ccc(Cl)cc2)o1
IC50 [1]: 4.6 µM

SMILES: CN1CCCc2cc(NC(=O)c3ccc(-c4ccc(Cl)cc4)o3)ccc21
IC50 [1]: 2.9 µM | inhibition at 0.03 µM [20]: 79% | inhibition at 0.003 µM [21]: 44% | inhibition at 0.3 µM [5]: 28% | inhibition at 0.003 µM [23]: 31% | inhibition [8]: 56% | inhibition [39]: 70% | inhibition [10]: 27% | inhibition [40]: 66% | inhibition [12]: 55% | inhibition [41]: 70% | inhibition [13]: 38% | inhibition [15]: 37% | inhibition at 3 µM [17]: 71% | inhibition [18]: 44% | IC50 [19]: 5.3 µM

SMILES: CN(C)C1CCN(C(=O)c2ccc(-c3ccc(Cl)cc3)o2)CC1
IC50 [1]: 5.2 µM

Now those with a lower IC50 [1], led by results:

IC50 [1]: 0.97 µM
SMILES: CN1CCOc2cc(NC(=O)c3ccc(-c4ccc(Cl)cc4)o3)ccc21

IC50 [1]: 0.48 µM | solubility [2]: < 0.1 µg/mL | inhibition [7]: 77% | inhibition [8]: 68% | inhibition [9]: 67% | inhibition [10]: 61% | inhibition [11]: 77% | inhibition [12]: 68% | inhibition [13]: 54% | inhibition [14]: 33% | inhibition [15]: 61% | inhibition [16]: 17% | inhibition [18]: 41%
SMILES: Cc1cccc(NC(=O)c2ccc(-c3ccc(Cl)cc3)o2)c1
inhibition at 0.3 µM [3]: 60% | inhibition at 0.1 µM [4]: 37% | inhibition at 0.3 µM [5]: 18% | inhibition at 0.1 µM [6]: 3% | inhibition at 3 µM [17]: 51% | IC50 [19]: 27 µM

IC50 [1]: 0.29 µM | inhibition [33]: 73% | inhibition [24]: 40% | inhibition [34]: 33% | inhibition [25]: 7% | inhibition [35]: 73% | inhibition [14]: 84% | inhibition [36]: 47%
SMILES: Cc1cccc(NC(=O)c2ccc(-c3ccc(OC(F)(F)F)cc3)o2)c1
inhibition at 0.3 µM [3]: 63% | inhibition at 0.1 µM [4]: 40% | inhibition at 0.3 µM [5]: 30% | inhibition at 0.1 µM [6]: 25% | inhibition at 1 µM [37]: 87% | inhibition at 0.1 µM [38]: 52% | IC50 [19]: > 30 µM

IC50 [1]: 0.03 µM | inhibition [8]: 99% | inhibition [24]: 76% | inhibition [10]: 94% | inhibition [25]: 46% | inhibition [12]: 99% | inhibition [26]: 76% | inhibition [27]: 94% | inhibition [28]: 91% | inhibition [29]: 24% | inhibition [32]: 70%
SMILES: Cc1cccc(N/C(=N/C#N)c2ccc(-c3ccc(Cl)cc3)o2)c1
inhibition at 0.03 µM [20]: 71% | inhibition at 0.003 µM [21]: 51% | inhibition at 0.03 µM [22]: 45% | inhibition at 0.003 µM [23]: 22% | inhibition at 0.3 µM [30]: 69% | inhibition at 0.03 µM [31]: 32% | IC50 [19]: > 30 µM
